Experimental data from patent US6086915A, “Compositions and methods of adjusting steroid hormone metabolism through phytochemicals” (priority 1998, dated 2000).
In brackets after ≈: the same amount, converted by molar mass. Entries after “also recorded” stand apart in the source; their conditions may differ. Where two headings read alike, the source gives them in different places.

Tests used:
[1] = an hour after oral dose of I3C; cited from earlier work
[2] = test system: cultured liver cells; settings: added directly to cultured liver cells; cited from earlier work
[3] = test system: CYP 1A1/1A2 and 1B1; experiment: Example 10: immunoblot of CYP enzyme induction in uterine and hepatic microsomes after feeding; type: in vivo, Sprague-Dawley female rats
Method: CYP enzyme induction was again used as a bio-marker of bioavailability.
The study compared the enzyme induction resulting from exposure of female rats to crystalline DIM, I3C and processed DIM at relevant doses in the feed. Levels of CYP 1A1/1A2 and 1B1 were measured in uterine and hepatic microsomes as a surrogate end point of uptake and bioavailability.
A total of 30 Sprague-Dawley female rats weighing approximately 200 gms were treated as follows:
1. 5-7 day acclimatization in group cages, feeding on AIN76A minimally inducing diet.
2. 3 days feeding on same feed mixed with 7 different combinations of dietary indoles.
3. Sacrifice of animals on about day 10. Harvesting of livers and uteri following perfusion of abdominal organs to remove blood.
4. Processing of organs to obtain CYP enzyme rich microsomal fraction.
5. Immunoblot determination of levels of specific CYP enzymes by standard means using existing CYP antibodies.
Microsomes from the following groups were assayed:
Organ weight was obtained at necropsy. Specific CYP enzyme levels were compared based on standardized densitometry units. […] Results expressed as densitometry units indicating uptake of indole and degree of enzyme induction are listed according to the above groups: […]

[4] = test system: hepatic microsomal metabolism of estrogen; settings: cited from earlier work
[5] = test system: total cytochrome (CYP) enzymes; experiment: Example 9: total CYP in liver microsomes of rats fed crystalline or processed DIM (Western Blots); type: in vivo, Sprague Dawley rats; settings: males; 100 mg per kg gavage, 3 consecutive days
[6] = test system: p-glycoprotein; settings: cited from earlier work
[7] = test system: Human Cancer Cells; settings: cell culture; cited from earlier work
[8] = test system: CYP enzymes in colonic epithelium; settings: in diet, mixed with feed; cited from earlier work
[9] = test system: hepatic enzyme; settings: one mg/kg of DIM in corn oil, fed; cited from earlier work
[10] = solubility in water and in oil; type: physicochemical
[11] = DIM stability in simulated gastric environment and shelf-life conditions; type: physicochemical
Source text: Therefore the need exists for a bioavailable formulation of DIM as well as related dimers and trimers, since hydrophobic substances like DIM are poorly absorbed.

[12] = test system: 2-hydroxylation of estradiol; settings: animals; cited from earlier work
[13] = cited from earlier work
[14] = test system: CYP 1A1/1A2; settings: mice fed I3C; cited from earlier work
[15] = test system: CYP 1A1/1A2; settings: rats fed I3C; cited from earlier work
[16] = test system: 2-hydroxylation of estradiol; settings: cited from earlier work; for shift of estrogen metabolism: I3C, oral
[17] = test system: CYP; settings: cited from earlier work
[18] = oil, organic solvent or mixture, read-out: solubility in oil
[19] = water, read-out: solubility in water

c1ccc2c(Cc3[nH]c4ccccc4c3Cc3c[nH]c4ccccc34)c[nH]c2c1 [2,3-bis[3-indolylmethyl]indole]
detection in gastric contents and stomach tissue [1]: detected in gastric contents and stomach tissue

c1ccc2c(Cc3c[nH]c4ccccc34)c[nH]c2c1 [DIM, 3,3'-diindolylmethane]
CYP enzyme induction [2]: powerful CYP enzyme-inducer | CYP enzyme induction, Densitometry Units ([3]; DIM high 10 mg/kg/day, crystalline, in feed 3 days): 0 Densitometry Units | CYP enzyme induction, Densitometry Units ([3]; DIM low 2 mg/kg/day, crystalline, in feed 3 days): 0 Densitometry Units | detection in gastric contents and stomach tissue [1]: detected in gastric contents and stomach tissue | dose below which activity is lost ([4]; DIM in the diet / in sesame oil): below 5 mg per kg | potency in influencing estrogen metabolism, DIM over I3C ([4]; fed to rats): increased potency of DIM over I3C | lowest dose with enzyme inductive effects ([4]; injected intraperitoneally): 0.3 mg per kg | Total CYP (nmol/mg protein), Percent of Control [5]: 140% | p-glycoprotein function ([6]; cell culture and in vivo): Inhibition of the function of the p-glycoprotein | effectiveness of chemotherapy drugs in multiply resistant cancer cells [6]: increase the effectiveness of chemotherapy drugs in multiply resistant cancer cells; also recorded: increased effectiveness of chemotherapeutic compounds in multiply resistant cancer cells | interaction with p-glycoprotein membrane structure ([6]; molecular probe): direct interaction of DIM with the p-glycoprotein membrane structure | apoptosis [7]: able to support the cancer preventive behavior of apoptosis | CYP enzyme induction in colonic epithelium [8]: failed to induce CYP enzymes in colonic epithelium | hepatic enzyme induction [9]: no hepatic enzyme induction | solubility [10, 18]: 0.1 mg/mL (≈ 406 µM) | solubility [10, 19]: 0.0025 mg/mL (≈ 10.1 µM) | shelf stability ([11]; accelerated shelf-life conditions): shelf stable | indolocarbazole generation ([11]; digestion, gastric acid, or accelerated shelf-life conditions): No indolocarbazole is generated | stability during passage through a simulated gastric environment ([11]; simulated gastric environment): entirely stable

OCc1c[nH]c2ccccc12 [I3C, indole-3-carbinol]
CYP enzyme induction, Densitometry Units ([3]; I3C high 25 mg/kg/day, in feed 3 days): 5.1 Densitometry Units | CYP enzyme induction, Densitometry Units ([3]; I3C low 5 mg/kg/day, in feed 3 days): 0 Densitometry Units | 2-hydroxylation of estradiol [12]: increase the 2-hydroxylation of estradiol | loss of the original I3C ([13]; aging conditions simulating a one month period, 43800 min): approximately 50% | stability ([13]; heat, light, moisture, or acidic environments): unstable and subject to spontaneous breakdown | hepatic and intestinal levels of CYP 1A1/1A2 enzyme [14]: increased | CYP enzyme induction in colonic epithelium [8]: powerful inductive activity | hepatic and intestinal levels of CYP 1A1/1A2 enzyme [15]: increased | minimum dose ([16]; I3C dietary supplement): 300 mg per person per day | shift of estrogen metabolism [16]: beneficially shift estrogen metabolism to favor 20 H estrone | shift of estrogen metabolism ([16]; listed as indole-3-carbinol): successful in shifting estrogen metabolism to favor 20 H estrone | 2-hydroxylation of estradiol ([16]; humans): increase the 2-hydroxylation of estradiol

Clc1cc2c(cc1Cl)Oc1cc(Cl)c(Cl)cc1O2 [TCDD, 2,3,7,8-Tetrachlorodibenzo-P-Dioxin]
CYP enzyme induction, Densitometry Units ([3]; positive control, by gavage): 251.7 Densitometry Units

COc1ccc(-c2cc(=O)c3c(OC)c(OC)c(OC)c(OC)c3o2)cc1 [Tangeretin, 5,6,7,8,4'-pentamethoxyflavone]
CYP induction ([17]; dietary intake): associated with CYP induction

O=c1cc(-c2ccccc2)oc2cc(O)cc(O)c12 [chrysin, 5,7-Dihydroxyflavone, reference compound]
CYP-related effects in rat livers ([17]; two weeks oral intake at 300 mg/kg of body weight): no CYP-related effects were noted in rat livers | solubility [10, 18]: 0.05 mg/mL (≈ 197 µM) | solubility [10, 19]: 0.0007 mg/mL (≈ 2.75 µM)
